Results from patent EP0623346B1, “INHIBITOR FOR METASTASIS OF MALIGNANT TUMOR” (TORAY INDUSTRIES, INC., priority 1992, dated 1994).
Marks after values point to notes of the source that are not given here.

What was measured:
[1] = Acute toxicity test; type: in vivo, rats; settings: for LD50: 14 days observation, 95% reliable limit in parentheses, Litchfield-Wilcoxon Method
Method: Acute toxicity test was carried out using rats.
The numbers in parentheses indicate 95% reliable limit.

[2] = tested on: Mouse Melanoma B16F10; assay: Effectiveness on blood-mediated metastasis in mice of mouse melanoma B16F10 (lung metastasized nodes); type: in vivo, C57/BL6 mice; settings: for Number of Metastasized Nodes (mean ± standard error): simultaneously with 10^6 cells/mouse in tail vein, lung surface nodes counted after 14 days; for Metastasis Inhibition Rate (%): versus control group, p< 0.001
Method: [Effectiveness on Blood-mediated Metastasis in Mice of Mouse Melanoma B16F10]
Liquid-cultured mouse melanoma cells were transplanted in tail veins of C57/BL6 mice (6 weeks old, male) in an amount of 10^6 cells/mouse. Simultaneously, beraprost sodium salt was administered intravenously at a dose of 0.03 mg/kg, 0.1 mg/kg or 0.3 mg/kg. To a control group, phosphate buffer saline was administered. Fourteen days after the administration, mice were sacrificed and the lung was removed from each mouse. From the trachea communicating to the lung, 10% neutral buffered formalin solution was poured to inflate the lung, and the lung was immersed in 10% neutral buffered formalin solution to fix the lung. Several days later, each lung was divided and the number of the metastasized nodes on the surface of each leaf was counted with a stereoscopic microscope.
The statistical analysis of this example was carried out according to the student's t-test.

CC#CCC(C)[C@H](O)/C=C/[C@@H]1[C@H]2c3cccc(CCCC(=O)O)c3O[C@H]2C[C@H]1O (mixture of isomers) [Beraprost, (±)-(1R*, 2R*, 3aS*, 8bS*)-2,3,3a,8b-tetrahydro-2-hydroxy-1-[(E)-(3S*)-3-hydroxy-4-methyl-1-octene-6-inyl]-1H-cyclopenta[b]benzofuran-5-butyric acid]
LD50 ([1]; Intravenous, Female): 13 (10-16) mg/kg
LD50 ([1]; Intravenous, Male): 18 (15-22) mg/kg
LD50 ([1]; Oral, Female): 12 (9-15) mg/kg
LD50 ([1]; Oral, Male): 15 (13-19) mg/kg
LD50 ([1]; Subcutaneous, Female): 7 ( 6- 9) mg/kg
LD50 ([1]; Subcutaneous, Male): 13 (12-14) mg/kg
pathological observation, main findings ([1]; animals that were killed, common to male and female and to all administration routes): slight to medium congestion in lung, slight to medium bleeding in glandular stomach and slight small intestine catarrh
Number of Metastasized Nodes (mean ± standard error) ([2]; 0.03 mg/kg intravenously): 204 ± 24
Metastasis Inhibition Rate (%) ([2]; 0.03 mg/kg intravenously): 48*** %
Number of Metastasized Nodes (mean ± standard error) ([2]; 0.1 mg/kg intravenously): 160 ± 28
Metastasis Inhibition Rate (%) ([2]; 0.1 mg/kg intravenously): 52*** %
Number of Metastasized Nodes (mean ± standard error) ([2]; 0.3 mg/kg intravenously): 167 ± 21
Metastasis Inhibition Rate (%) ([2]; 0.3 mg/kg intravenously): 49*** %
maximum inhibition rate of metastasis of B16F10 to mouse lungs ([2]; maximum over doses 0.03-0.3 mg/kg intravenously): 52%
